{
  "source": "paper PMC6366974",
  "about": "“The curcumin analog EF24 is a novel senolytic agent” (Aging (Albany NY), 2019)",
  "assay_in_all_cases": "Cell viability assay (flow cytometry, PI)",
  "format_in_all_cases": "cell-based",
  "key": {"HREC NCs": {"system": "HREC NCs", "conditions": "Homo sapiens, 72 h", "experimental": "(§1) Human WI-38 fibroblasts (WI-38, Cat. No. CCL-75), human IMR-90 fibroblasts (IMR-90, Cat. No. CCL-186), human umbilical vein endothelial cells (HUVEC, Cat. No. CRL-1730), human renal epithelial cells (HREC, Cat. No. PCS-400-012) and human pre-adipocytes (Cat. No. PCS-210-010) were newly purchased from the American Type Culture Collection (ATCC, Manassas, VA, USA). WI-38 and IMR-90 cells were cultured in complete Dulbecco’s modified Eagle medium (DMEM, Cat. No. 12430054, Thermo Fisher Scientific, Waltham, MA, USA) supplemented with 10% heat-inactivated fetal bovine serum (FBS, Cat. No. S11150H, Atlanta Biologicals, Flowery Branch, GA, USA), 100 U/mL penicillin and 100 µg/mL streptomycin (Pen Strep, Cat. No. 15140122, Thermo Fisher Scientific, Waltham, MA, USA) in a humidified incubator at 37°C and 5% CO2. HUVEC were cultured in EGM-2 BulletKit (Cat. No. CC-3162, Lonza, Basel, Switzerland) containing basal medium supplemented with growth factors, cytokines and other supplements according to the manufacturer’s protocol. HREC were cultured in renal epithelial cell basal medium (Cat. No. PCS-400-030, ATCC, Manassas, VA, USA) supplemented with renal epithelial cell growth kit (Cat. No. PCS400040, ATCC, Manassas, VA, USA). Human pre-adipocytes were cultured in fibroblast basal medium (Cat. No. PCS-201-030, ATCC, Manassas, VA, USA) supplemented with fibroblast growth kit-low serum (Cat. No. PCS201041, ATCC, Manassas, VA, USA). EF24 (Cat. No. E8409) and HO-3867 (Cat. No. S7501) were purchased from Sigma-Aldrich (St. Louis, MO, USA) and Selleckchem (Houston, TX, USA), respectively. DIMC (Cat. No. 10009986) and 2-HBA (Cat. No. 11879) were both purchased from Cayman Chemical (Ann Arbor, MI, USA).\n(§2) Three different methods were used for the induction of SCs, including replicative exhaustion, ionizing radiation and ectopic Ras expression as previously described. Briefly, low-passage WI-38 cells (< 25 passages), IMR-90 cells (< 25 passages), HUVEC (< 10 passages), HREC (< 10 passages) and pre-adipocytes (< 4 passages) were used as NCs or for the induction of senescence. To induce replicative senescence (Rep-SCs), WI-38 and IMR-90 fibroblasts, HUVEC, HREC and pre-adipocytes were subcultured until they stopped to divide and became permanently growth arrested senescence after 38 passages (WI-38), 38 passages (IMR-90), 22 passages (HUVEC), 30 passages (HREC) and 10 passages (pre-adipocytes), respectively. To induce SCs by ionizing radiation (IR-SCs) and ectopic expression of Ras (Ras-SCs), WI-38 NCs were treated as previously described.\n(§3) Number of viable cells were quantified using flow cytometry as previously described with slight modifications. Specifically, NCs and SCs were incubated with vehicle (0.1% DMSO) or a test compound at indicated concentrations for 72 h. Following dissociation with 0.25% Trypsin-EDTA (Cat. No. 25200056, Thermo Fisher Scientific, Waltham, MA, USA) at 37°C for 5 min, the cells were harvested in 100 µl pre-cooled phosphate buffered saline (PBS, Cat. No. 20012027, Thermo Fisher Scientific, Waltham, MA, USA) containing 2% FBS and 100 ng/mL propidium iodide (PI, P4170, Sigma-Aldrich, St. Louis, MO, USA) and analyzed using flow cytometry (LSR II, BD Biosciences, San Jose, CA, USA). Percentage of viable cells were determined by counting the number of PI negative cells (viable cells) and then calculated as a ratio of control cells treated with vehicle. In addition, dose-response curves were generated for each compound, and the concentration for 50% of maximal effect (EC50 values) was calculated using GraphPad Prism 6."}, "HREC Rep-SCs": {"system": "HREC Rep-SCs", "conditions": "Homo sapiens, 72 h", "experimental": "as §1, §2, §3"}, "HUVEC NCs": {"system": "HUVEC NCs", "conditions": "Homo sapiens, 72 h", "experimental": "as §1, §2, §3"}, "HUVEC Rep-SCs": {"system": "HUVEC Rep-SCs", "conditions": "Homo sapiens, 72 h", "experimental": "as §1, §2, §3"}, "IMR-90 fibroblasts NCs": {"system": "IMR-90 fibroblasts NCs", "conditions": "Homo sapiens, IMR-90, 72 h", "experimental": "as §1, §2, §3"}, "[1]": {"system": "IMR-90 fibroblasts Rep-SCs", "conditions": "Homo sapiens, IMR-90, 72 h", "experimental": "as §1, §2, §3"}, "[2]": {"system": "WI-38 replication-exhausted senescent cells (Rep-SCs)", "conditions": "Homo sapiens; WI-38, 72 h, Table 2", "experimental": "as §1, §2, §3"}, "pre-adipocytes NCs": {"system": "pre-adipocytes NCs", "conditions": "Homo sapiens; Pre-adipocyte, 72 h", "experimental": "as §1, §2, §3"}, "pre-adipocytes Rep-SCs": {"system": "pre-adipocytes Rep-SCs", "conditions": "Homo sapiens; Pre-adipocyte, 72 h", "experimental": "as §1, §2, §3"}},
  "note": "pEC50: −log10 of the molar value.",
  "data": [
    {"smiles": "O=C1/C(=C/c2ccccc2F)CNC/C1=C\\c1ccccc1F", "note": "[EF24]", "values": [
      {"measurement": "pEC50", "setting": "HREC NCs", "result": 5.49},
      {"measurement": "pEC50", "setting": "HREC Rep-SCs", "result": 6.22},
      {"measurement": "pEC50", "setting": "HUVEC NCs", "result": 5.86},
      {"measurement": "pEC50", "setting": "HUVEC Rep-SCs", "result": 6.11},
      {"measurement": "pEC50", "setting": "IMR-90 fibroblasts NCs", "result": 4.96},
      {"measurement": "pEC50", "setting": "[1]", "result": 6.48},
      {"measurement": "pEC50", "setting": "[2]", "result": 5.90},
      {"measurement": "pEC50", "setting": "pre-adipocytes NCs", "result": 5.05},
      {"measurement": "pEC50", "setting": "pre-adipocytes Rep-SCs", "result": 5.34}
    ]}
  ]
}
